Results published in patent US6699719B2, “Biosensor arrays and methods” (Proteomic Systems, Inc., priority 1996, dated 2004).

How the values were obtained:
[1] = target: CXCR4 (CXC chemokine Receptor 4) (Homo sapiens, UniProt P61073); assay: MembraneChip specificity of fluorescent ligand binding against another GPCR; settings: CXCR4 chip probed with 15 μM BODIPY 558/568 Pirenzepine
[2] = MembraneChip lipid only control corral probed with fluorescent ligand; type: binding; settings: for difference in BODIPY TMR CGP12177 fluorescence when competitor added: lipid only (negative) corral, 5 mM propranolol or 15 mM scopolamine
CXCR1 = target: T1, CXCR1 (Homo sapiens, UniProt P25024); assay: Multiplexed MembraneChip GPCR assay; type: binding; settings: CXCR1 corral; 5 mM propranolol or 15 mM scopolamine
T1 construct: purchased Stratagene (La Jolla, Calif.)
T1 sequence (P25024 1-350): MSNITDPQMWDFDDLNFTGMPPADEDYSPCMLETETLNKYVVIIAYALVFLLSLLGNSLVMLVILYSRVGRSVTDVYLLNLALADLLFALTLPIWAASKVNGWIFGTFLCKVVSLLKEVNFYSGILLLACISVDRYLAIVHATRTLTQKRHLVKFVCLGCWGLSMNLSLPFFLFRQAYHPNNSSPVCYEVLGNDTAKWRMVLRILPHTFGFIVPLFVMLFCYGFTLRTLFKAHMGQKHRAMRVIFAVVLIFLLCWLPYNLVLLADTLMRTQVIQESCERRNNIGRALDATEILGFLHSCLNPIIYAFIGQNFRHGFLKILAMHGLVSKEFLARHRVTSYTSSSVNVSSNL

CXCR3 = target: T2, CXCR3 (Homo sapiens, UniProt P49682); assay: Multiplexed MembraneChip GPCR assay; type: binding; settings: CXCR3 corral; 5 mM propranolol or 15 mM scopolamine
T2 construct: purchased Stratagene (La Jolla, Calif.)
T2 sequence (P49682 1-368): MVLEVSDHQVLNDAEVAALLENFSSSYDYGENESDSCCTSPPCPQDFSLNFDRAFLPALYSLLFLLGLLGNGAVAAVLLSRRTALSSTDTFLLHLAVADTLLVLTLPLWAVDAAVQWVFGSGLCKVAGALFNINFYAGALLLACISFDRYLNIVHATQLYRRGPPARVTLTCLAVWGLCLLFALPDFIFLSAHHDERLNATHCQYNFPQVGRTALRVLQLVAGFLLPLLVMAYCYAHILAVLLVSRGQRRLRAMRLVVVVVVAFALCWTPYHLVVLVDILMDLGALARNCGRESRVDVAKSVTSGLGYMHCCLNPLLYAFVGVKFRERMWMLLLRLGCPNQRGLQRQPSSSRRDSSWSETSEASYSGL

AR-β1 = target: T3, AR-β1 (Homo sapiens, UniProt P08588); assay: Multiplexed MembraneChip GPCR assay; type: binding; settings: 15 mM scopolamine
T3 construct: purchased Packard BioScience (Meriden, CT) 6110106
T3 sequence (P08588 whole entry): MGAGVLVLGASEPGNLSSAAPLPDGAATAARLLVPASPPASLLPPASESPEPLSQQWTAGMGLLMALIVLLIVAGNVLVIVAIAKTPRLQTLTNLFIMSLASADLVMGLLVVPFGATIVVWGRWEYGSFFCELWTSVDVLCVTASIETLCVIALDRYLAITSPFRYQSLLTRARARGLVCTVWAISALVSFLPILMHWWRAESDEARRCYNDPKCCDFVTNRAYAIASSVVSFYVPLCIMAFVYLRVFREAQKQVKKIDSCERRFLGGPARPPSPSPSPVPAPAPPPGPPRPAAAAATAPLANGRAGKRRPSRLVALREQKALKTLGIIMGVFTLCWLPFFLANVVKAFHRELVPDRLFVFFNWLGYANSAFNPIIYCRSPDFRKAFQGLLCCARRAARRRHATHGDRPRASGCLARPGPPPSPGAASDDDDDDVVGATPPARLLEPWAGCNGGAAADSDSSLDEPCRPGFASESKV

CXCR4 = CXCR4 (Homo sapiens, UniProt P61073); assay: Multiplexed MembraneChip GPCR assay; type: binding; settings: CXCR4 corral; 5 mM propranolol or 15 mM scopolamine
Chain of CXCR4 (P61073 whole entry, species assumed): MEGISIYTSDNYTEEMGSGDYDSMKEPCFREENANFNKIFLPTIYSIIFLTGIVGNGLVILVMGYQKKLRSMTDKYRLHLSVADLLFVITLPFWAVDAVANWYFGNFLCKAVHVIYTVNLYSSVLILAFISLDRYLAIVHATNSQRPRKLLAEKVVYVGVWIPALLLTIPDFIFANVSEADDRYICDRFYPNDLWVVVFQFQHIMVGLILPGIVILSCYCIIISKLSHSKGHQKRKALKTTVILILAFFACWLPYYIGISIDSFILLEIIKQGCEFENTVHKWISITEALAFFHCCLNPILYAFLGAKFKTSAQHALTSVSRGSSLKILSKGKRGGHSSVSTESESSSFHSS

Chain of CXCR4 (CXC chemokine Receptor 4) (P61073 whole entry, species assumed): as above

Relative Fluorescence Units (RFU) ± standard deviation, CXCR4 [1] | SMILES | Relative Fluorescence Units (RFU) ± standard deviation, Negative ([2]; lipid only corral probed with 15 μM BODIPY 558/568 Pirenzepine) | difference in BODIPY TMR CGP12177 fluorescence when competitor added (CXCR1) | difference in BODIPY TMR CGP12177 fluorescence when competitor added [2] | difference in BODIPY TMR CGP12177 fluorescence when competitor added (CXCR3) | change in fluorescence of BODIPY TMR CGP12177 at AR-β1 (AR-β1) | difference in BODIPY TMR CGP12177 fluorescence when competitor added (CXCR4)
8,788 ± 3,137 RFU | O=C(CCc1ccc(/C=C2\C=CC(c3cccs3)=N2)n1B(F)F)NCCCCCCN1CCN(CC(=O)N2c3ccccc3C(=O)Nc3cccnc32)CC1 [BODIPY 558/568 Pirenzepine] | 2,637 ± 1,846 RFU | – | – | – | – | –
– | CC(C)NCC(O)COc1cccc2ccccc12 (stereo not shown) [propranolol] | – | only negligible differences | only negligible differences | only negligible differences | – | –
– | CN1[C@@H]2C[C@@H](OC(=O)[C@H](CO)c3ccccc3)C[C@H]1[C@@H]1O[C@@H]12 [scopolamine] | – | only negligible differences | only negligible differences | only negligible differences | Little decrease in fluorescence | only negligible differences
